Assay results reported in patent US6024955A, “Peptides and monoclonal antibodies” (Toagosei Co. Ltd., priority 1995, dated 2000).

Columns and labels:
MV833 antibody = settings: 20 μM peptide solution coated on plate
Method: The 67 peptides synthesized by the above procedures correspond to the entire region of human VPF 121. Therefore, by examining the reactivity of the 67 peptides with MV833 antibody, it is possible to identify the portion of VPF with which MV833 reacts. Then, the reactivity of the 67 peptides with MV833 antibody was examined by an enzyme immunoassay. Briefly, 20 μM peptide solutions each containing one of the 67 peptides were added to a 96-well NOS plate (Coaster) and left at room temperature for 2 hours. After each well was washed with 0.1% BSA-PBS 3 times, 2% BSA-PBS was added thereto and left at room temperature for 1 hour. After the removal of 2% BSA-PBS, MV833 (in 1% BSA-PBS solution) was added to the plate and left at room temperature for 1 hour. After each well was washed with 0.1% BSA-PBS 6 times, peroxidase-labelled sheep anti-mouse IgG (Amersham) (in 0.1% BSA-PBS) was added thereto and left at room temperature for 1 hour. After each well was washed with 0.1% BSA-PBS 6 times, 0.2 M Tris-citrate buffer (pH 5.2) containing 8.3 mg/ml orthophenylenediamine dihydrochloride and 0.01% hydrogen peroxide was added for coloring. The reaction was terminated by adding 2 N sulfuric acid and then absorbance (OD490/650) was measured.

[1] = system: Human fibrosarcoma (HT-1080); assay: Antitumor test, joint use with an existing carcinostatic, HT-1080 in nude mice; settings: mitomycin alone, 6 mg/kg, tail vein
Method: Human fibrosarcoma (HT-1080) subcutaneously subcultured in nude mice was cut out in a section of about 2 mm square and inoculated subcutaneously into 6 nude mice of another group using a trocar. On the next day of the inoculation, the existing carcinostatic mitomycin (3 mg/kg) or cisplatin (5 mg/kg) was injected into the tail vein once, and the monoclonal antibody of the invention was injected into the tail vein at a dose of 12.5 μg/mouse every 4 days from the next day of the transplantation.
In those groups which received an existing carcinostatic alone, 3 or 6 mg/kg of mitomycin or 5 or 10 mg/kg of cisplatin was administered in a similar manner as employed in the joint administration groups (i.e. every 4 days into the tail vein).
In the group which received the monoclonal antibody alone, 12.5 μg/mouse of the monoclonal antibody was administered similarly (i.e. every 4 days into the tail vein).
The tumor volume of each mouse was calculated by measuring the diameter of the tumor with the passage of time. At the same time, changes in body weight were also observed.

Compound | reactivity with MV833 antibody (absorbance OD490/650, FIG. 1) (MV833 antibody) | antitumor activity (tumor volume, FIG. 3) [1] | changes in body weight (FIG. 4) [1]
KPSCVPLMRCGG [Peptide 33] | reacted strongly |  | 
KCECRPKKDRAR [Peptide 63] | reacted strongly |  | 
CO[C@@]12[C@H](COC(N)=O)C3=C(C(=O)C(C)=C(N)C3=O)N1C[C@@H]1N[C@@H]12 [mitomycin] |  | strong antitumor activity was observed | loss in body weight was also observed
SFLQHNKCECRP [Peptide 60] | reacted strongly |  | 
FKPSCVPLMRCG [Peptide 32] | reacted strongly |  | 
YIFKPSCVPLMR [Peptide 31] | reacted strongly |  | 
